This is an account of results in EP0306300B1, “Pyrrolo(1,2-a)imidazole and imidazo(1,2-a)pyridine derivatives and their use as 5-lipoxygenase pathway inhibitors” (SMITHKLINE BEECHAM CORPORATION, priority 1987, dated 1989).

As usually defined, the IC50 is the concentration needed to halve the response being measured. Broadly, the inhibition is the percentage by which the read-out fell short of the control. A low value points to a weak effect.

In data set [1] the test system is Eicosanoid Production in Human Whole Blood. The experiment in a line: Inhibition of eicosanoid production following calcium ionophore stimulation in human whole blood. In kind it is cell-based. Conditions: human blood stimulated with calcium ionophore. Here is the method:
The eicosanoids, which include the 5-lipoxygenase products LTB , transLTB₄, 20-hydroxyLTB₄, 5-HETE, and the 12-lipoxygenase product are extracted from the whole blood following A23187 calcium ionophore stimulation. The extracts are separated by reverse phase high pressure liquid chromatography and quantified by absorbance methods.
Venous human blood is collected into polypropylene tubes containing 1% heparin. The blood is then aliquoted into 4.5 ml volumes and preincubated at 37°C for 10 minutes in polypropylene tubes (15 ml size). Compound or carrier (50 »L dimethylsulfoxide) is added 5 minutes prior to stimulation. Calcium ionophore (0.5ml) is added, and the blood incubated for 10 minutes. Prostaglancin B₂(1 nmole) is added, and the blood extracted as described below.
The samples are centrifuged at 1000xg for 15 minutes at 5°C. The plasma is collected, and one volume of methanol is added to the plasma. This suspension is then centrifuged at 1000xg for ten minutes at 5°C. The supernatant is collected and diluted with 1.5 volumes of chilled aqueous 1% formic acid: 1% triethylamine. This mixture is loaded onto a preconditioned J.T. Baker C18 SPE cartridge (Phillipsburg, NJ) at a flow rate of 1-2 ml/minute. (The cartridge is preconditioned according to manufacture's recommendations.) The absorbed sample is washed in the following order with three (3) ml each of (i) aqueous 1% formic acid: 1% triethylamine; (ii) petroleium ether; and (iii) 20% acetonitrile: 1% triethylamine.
The eicosanoids are eluted in 3ml of 70% acetonitrile: 1% triethylamine. The solvent is removed under vacuum. The sample is resuspended in 200»L of 50% methanol buffered with ammonium acetate.
The sample (175 »l) is loaded into a WATERS (Milbord, MA) RCM NOVA PAK C18 (100x8mm) column with the starting mobile phase of 90% A (A = 10% acetonitrile buffered with 30mM ammonium acetate to pH6.8) and 10% B (B = 90% acetonitrile buffered with 30mM ammonium acetate to pH6.8). The flow rate for the separation is 2.5ml/minute. At one minute the %B is increased to 27% in a step fashion. By 12 minutes the %B has increased in a concave hyperbolic function (curve 9) to 40% and increases in a linear manner to 60% by 22 minutes. Under these developing conditions, the retention times for the eicosanoids are: 20-hydroxyLTB₄, 4.6 minutes; transLTB₄, 10 minutes; LTB₄, 10.5 minutes; 12-HETE, 10.4 minutes; 5-HETE, 21 minutes. The HPLC system consisted of WATERS 510 pumps, 840 controller, WISP injector and 990 detector.
The eicosanoids in the samples are verified by their retention times and their UV absorbance spectra. The peaks are quantified with reference to the internal standard and their absorbance response at their maximum absorbance wavelength.

A short description of data set [2]: Log D determination by high pressure liquid chromatography. The format is physicochemical. To be noted: hplc ods, mobile phase MeOH:H2O, pH 7.4, read-out: (Log D) (Lipophilicity). Here is the method:
The procedure used to determine the log D's listed on Table VI was as follows. A 20 »l sample was injected into a Shandon Hypersil ODS, 5» (100 mm x 4.6 mm ID) column and was eluted using a mobile phase of […] MeOH:H₂O (The aqueous portion was .01 M in KH₂PO₄ and adjusted to pH 7.4 with KOH after mixing the MeOH), at a flow rate of 2 ml per minute. Eluting peaks were detected by UV absorbance at […]. All samples were made up at 0.1 mg/ml. (Retentions were identical at 0.01 mg/ml.)
The data was analyzed by determining the regression line corresponding to the log k′ vs. literature log P of the reference standards.
The reference standards and their literature log P's included NaNO₂, 0.0; acetanalide, 1.16; acetophenone, 1.66; anisole, 2.08; chlorobenzene, 2.84; benzophenone, 3.18; anthracene, 4.45; and pentachlorobenzene, 5.12.

The subject of data set [3] is cynomolgus monkeys. Put plainly: CNS activity / oral toxicity in cynomolgus monkeys. To be noted: cynomolgus monkey, in vivo. As for the experimental part: Additional monkeys tolerated repeated doses of 45 mg/kg or 30 mg/kg and one animal tolerated an escalating dose schedule of 30-90-120 mg/kg.
The two monkeys administered 400 mg/kg were repeatedly administered this dose for 7 consecutive days; each animal experienced emesis within 1 to 5 hours of dosing after the 1st, 3rd and 4th doses, whereas only the female experienced emesis after the 5th, 6th and 7th doses. A complete necropsy, serum clinical chemistry, hematology and histological examination was completed on both monkeys.

Data set [4] deals with arachidonic acid-induced edema in mice. Put plainly: Arachidonic acid-induced mouse ear inflammation (ear swelling). The format is in vivo, male Balb/c mice. To be noted: 1 h, 50 mg/kg s.c. or i.p., ear thickness one hour after 2 mg arachidonic acid.
A short description of data set [5]: In vivo metabolism (statement only).
The mark [6] stands for this setting: 5-HETE, read-out: 5-LO, IC50 (uM) 5-HETE.
Where [7] appears, read: 12-HETE, read-out: 5-LO, IC50 (uM) 12-HETE.
Where [8] appears, read: LTB4, read-out: 5-LO, IC50 (uM) LTB4.
The mark [9] stands for this setting: tLTB4, read-out: 5-LO, IC50 (uM) tLTB4.

Like-named read-outs stand apart in the source and are kept apart here.

Regarding `CSc1ccc(-c2nc3n(c2-c2ccncc2)CCC3)cc1` [Compound 1, 2-(4-Methylthiophenyl)-3-(4-pyridyl)-6,7-dihydro-[5H]-pyrrolo[1,2-a]imidazole], the IC50 in data set [1] (setting [6]) was 30 µM; in data set [1] (setting [7]), 60 µM; in data set [1] (20-OH-LTR4, read-out: 5-LO, IC50 (uM) 20-OH-LTR4) it was 30 µM; in data set [1] (setting [8]), 30 µM; in data set [1] (setting [9]) it was 30 µM. In data set [2], the chromatographic logD came to 2.68. Moreover, the “Adverse CNS activity” value in data set [3] is listed as “+”. The “CNS toxicity / adverse CNS effects (comparative statement)” value in data set [3] is on record as “less CNS toxicity than prior art compound A”. In data set [4], the inhibition at 50 mg/kg was 62%.
For `C[S+]([O-])c1ccc(-c2nc3n(c2-c2ccncc2)CCC3)cc1` (stereo not drawn) [Compound 2, 2-(4-Methylsulfinylphenyl)-3-(4-pyridyl)-6,7-dihydro-[5H]-pyrrolo[1,2-a]imidazole], the IC50 in data set [1] (setting [6]), in data set [1] (setting [7]), in data set [1] (setting [8]) and in data set [1] (setting [9]) was 80 µM throughout. The chromatographic logD in data set [2] came to 0.85. Also, the metabolism in vivo entry in data set [5] is reported as “metabolized in vivo to compound D”.
